Experimental data as given in the supplement of paper PMC11061612.

Assays:
Assay in all cases: Bliss excess, mean over the matrix (fraction); higher = more synergy
[1] = tested on: 697 (B-Lymphoblastic Leukemia)
Summary of the method: (§1)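 Bliss excess equals the observed combination effect minus the expected value EA + EB − EA·EB, where EA and EB are the effects of each agent alone. Combination Emax is the second-highest inhibition within the matrix. Inhibition was scaled from CellTiter-Glo 2.0 luminescence, with 0 set by vehicle wells and 1 by blank wells, after 72 hours of two-drug dosing of cells plated in 1536-well plates.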

[2] = tested on: CFPAC-1 (Pancreatic Carcinoma)
Summary of the method: as §1

[3] = tested on: COR-L95 (Small Cell Lung Carcinoma)
Summary of the method: as §1

[4] = tested on: DB (B-Cell Non-Hodgkin's Lymphoma)
Summary of the method: as §1

DSH1 (Bladder Carcinoma) = tested on: DSH1 (Bladder Carcinoma)
Summary of the method: as §1

ES7 (Ewing's Sarcoma) = tested on: ES7 (Ewing's Sarcoma)
Summary of the method: as §1

[5] = tested on: IHH-4 (Thyroid Gland Carcinoma)
Summary of the method: as §1

J82 (Bladder Carcinoma) = tested on: J82 (Bladder Carcinoma)
Summary of the method: as §1

[6] = tested on: KARPAS-1106P (B-Cell Non-Hodgkin's Lymphoma)
Summary of the method: as §1

[7] = tested on: KARPAS-620 (Plasma Cell Myeloma)
Summary of the method: as §1

[8] = tested on: KATOIII (Gastric Carcinoma)
Summary of the method: as §1

[9] = tested on: KM-H2 (Hodgkin's Lymphoma)
Summary of the method: as §1

[10] = tested on: LS-513 (Colorectal Carcinoma)
Summary of the method: as §1

[11] = tested on: MDA-MB-157 (Breast Carcinoma)
Summary of the method: as §1

[12] = tested on: NCI-H1299 (Non-Small Cell Lung Carcinoma)
Summary of the method: as §1

[13] = tested on: NCI-H1694 (Small Cell Lung Carcinoma)
Summary of the method: as §1

[14] = tested on: OCI-AML2 (Acute Myeloid Leukemia)
Summary of the method: as §1

SN12C (Kidney Carcinoma) = tested on: SN12C (Kidney Carcinoma)
Summary of the method: as §1

[15] = tested on: SUIT-2 (Pancreatic Carcinoma)
Summary of the method: as §1

[16] = tested on: SW1088 (Low Grade Glioma)
Summary of the method: as §1

Compound | Bliss excess [1] | Bliss excess [2] | Bliss excess [3] | Bliss excess [4] | Bliss excess (DSH1 (Bladder Carcinoma)) | Bliss excess (ES7 (Ewing's Sarcoma)) | Bliss excess [5] | Bliss excess (J82 (Bladder Carcinoma)) | Bliss excess [6] | Bliss excess [7] | Bliss excess [8] | Bliss excess [9] | Bliss excess [10] | Bliss excess [11] | Bliss excess [12] | Bliss excess [13] | Bliss excess [14] | Bliss excess (SN12C (Kidney Carcinoma)) | Bliss excess [15] | Bliss excess [16]
COc1nnc2ccc(N3CCC(c4ccc(OCCN5CCN(C)C(=O)[C@H]5C)cc4)CC3)nn12 [AZD5153] + Cc1c2c(nn1C)CSCc1cc(n(C)n1)CSc1cc(c3ccccc3c1)OCCCc1c(C(=O)O)n(C)c3c-2c(Cl)ccc13 [AZD5991] (first compound max 1 µM, 7x7, partner max 1 µM) | -0.0558 | -0.0208 | -0.0167 | 0.0507 | 0.0112 | 0.0052 | -0.0329 | 0.0439 | 0.0005 | -0.0115 | -0.0765 | -0.0495 | -0.0549 | 0.0297 | -0.0313 | 0.0992 | -0.0185 | -0.0285 | -0.0318 | 0.0112
CN(C)CCCOc1ccc(-c2ccc3ncc4c(c3c2)n(C2CCOCC2)c(=O)n4C)cn1 [AZD0156] + C=CCn1c(=O)c2cnc(Nc3ccc(N4CCN(C)CC4)cc3)nc2n1-c1cccc(C(C)(C)O)n1 [AZD1775] (first compound max 1 µM, partner max 1 µM) | 0.0183 | -0.0645 | -0.107 | -0.0119 | 0.0236 | -0.0153 | 0.0247 | -0.0194 | -0.0384 | 0.0135 | -0.064 | 0.0303 | -0.0448 | -0.0177 | -0.0179 | -0.0303 | -0.0258 | -0.0717 | 0.0011 | -0.0738
COc1cccc(OCCCN)c1-c1cc(Nc2cnc(C#N)cn2)n[nH]1 [Prexasertib] + C=CCn1c(=O)c2cnc(Nc3ccc(N4CCN(C)CC4)cc3)nc2n1-c1cccc(C(C)(C)O)n1 [AZD1775] (first compound max 1 µM, partner max 1 µM) | 0.0316 | -0.0145 | -0.0187 | 0.071 | 0.112 | 0.0597 | 0.136 | 0.096 | -0.0047 | 0.0927 | -0.0076 | 0.077 | 0.0763 | 0.0628 | -0.0148 | 0.13 | 0.0655 | 0.0613 | 0.036 | -0.0156
CS(=O)(=O)CCNCc1ccc(-c2ccc3ncnc(Nc4ccc(OCc5cccc(F)c5)c(Cl)c4)c3c2)o1 [Lapatinib] + C[C@@H](Oc1cc(-c2cnn(C3CCNCC3)c2)cnc1N)c1c(Cl)ccc(F)c1Cl [Crizotinib] (first compound max 10 µM, 7x7, partner max 10 µM) | 0.0166 | -0.077 | -0.0529 | -0.148 | 0.0668 | -0.0214 | -0.0634 | -0.0317 | -0.0483 | -0.0459 | 0.0169 | 0.0018 | -0.023 | -0.0086 | -0.0677 | 0.025 | -0.0813 | -0.017 | 0.0051 | -0.0612
Cc1c2c(nn1C)CSCc1cc(n(C)n1)CSc1cc(c3ccccc3c1)OCCCc1c(C(=O)O)n(C)c3c-2c(Cl)ccc13 [AZD5991] + C1CN(CCC1(C(=O)N[C@@H](CCO)C2=CC=C(C=C2)Cl)N)C3=NC=NC4=C3C=CN4 [Capivasertib] (first compound max 1 µM, 7x7, partner max 3 µM) | -0.034 | 0.0021 | 0.0071 | 0.0079 | 0.001 | 0.112 | 0.0037 | -0.0046 | 0.0188 | -0.0097 | -0.0267 | -0.0052 | -0.0343 | 0.0573 | -0.0174 | -0.0142 | 0.0385 | -0.0239 | -0.0304 | -0.0562
CCN(CCO)CCCOc1ccc2c(Nc3cc(CC(=O)Nc4cccc(F)c4)[nH]n3)ncnc2c1 [AZD2811] + C=CCn1c(=O)c2cnc(Nc3ccc(N4CCN(C)CC4)cc3)nc2n1-c1cccc(C(C)(C)O)n1 [AZD1775] (first compound max 1 µM, partner max 1 µM) | 0.0164 | -0.0695 | -0.0225 | 0.0251 | -0.0013 | -0.0468 | 0.0451 | 0.0001 | -0.0241 | -0.0619 | -0.0459 | 0.0339 | -0.0974 | 0.0291 | -0.024 | 0.0223 | 0.0077 | -0.0698 | -0.017 | 0.0034
CCN(CCO)CCCOc1ccc2c(Nc3cc(CC(=O)Nc4cccc(F)c4)[nH]n3)ncnc2c1 [AZD2811] + C[C@@H]1COCCN1C2=NC(=NC(=C2)C3(CC3)[S@](=N)(=O)C)C4=C5C=CNC5=NC=C4 [AZD6738] (first compound max 1 µM, 7x7, partner max 10 µM) | 0.0013 | -0.0932 | -0.0658 | -0.0302 | 0.02 | -0.0482 | -0.0583 | -0.0259 | -0.0713 | -0.0121 | -0.0477 | -0.0249 | -0.0524 | 0.0031 | -0.0808 | -0.0073 | -0.0145 | -0.0641 | -0.0307 | -0.103
Cc1cc2ncnn2cc1Nc1ncc2c(n1)n(C1CCOCC1)c(=O)n2C [AZD7648] + O=C(c1cc(Cc2n[nH]c(=O)c3ccccc23)ccc1F)N1CCN(C(=O)C2CC2)CC1 [Olaparib] (first compound max 10 µM, 7x7, partner max 10 µM) | 0.0076 | -0.0567 | -0.0158 | -0.0564 | 0.0328 | -0.0569 | -0.0313 | 0.0357 | -0.0538 | -0.0306 | -0.0367 | -0.0127 | -0.0387 | -0.0251 | -0.03 | -0.0004 | -0.0289 | -0.0469 | 0.0151 | -0.067
COc1nnc2ccc(N3CCC(c4ccc(OCCN5CCN(C)C(=O)[C@H]5C)cc4)CC3)nn12 [AZD5153] + Cn1cnc2c(F)c(Nc3ccc(Br)cc3Cl)c(C(=O)NOCCO)cc21 [Selumetinib] (first compound max 1 µM, 7x7, partner max 10 µM) | -0.0389 | -0.0149 | -0.0561 | 0.0093 | -0.0458 | -0.0502 | 0.0085 | 0.014 | 0.013 | 0.112 | -0.0294 | -0.0839 | -0.0213 | 0.0292 | -0.0243 | -0.0641 | 0.0311 | 0.0158 | 0.0227 | 0.029
NC1(C(=O)N[C@@H](CCO)c2ccc(Cl)cc2)CCN(c2ncnc3[nH]ccc23)CC1 [Capivasertib] + CCN(CCO)CCCOc1ccc2c(Nc3cc(CC(=O)Nc4cccc(F)c4)[nH]n3)ncnc2c1 [AZD2811] (first compound max 10 µM, 7x7, partner max 1 µM) | -0.0593 | 0.0281 | -0.0075 | 0.0338 | -0.0694 | -0.0354 | 0.0289 | -0.0018 | 0.0426 | 0.0272 | -0.0213 | -0.0195 | -0.0771 | 0.0354 | 0.0012 | 0.0503 | 0.0134 | -0.0536 | -0.0074 | -0.0088
C[C@@H]1COCCN1c1cc(C2([S@](C)(=N)=O)CC2)nc(-c2ccnc3[nH]ccc23)n1 [AZD6738] + O=C(c1cc(Cc2n[nH]c(=O)c3ccccc23)ccc1F)N1CCN(C(=O)C2CC2)CC1 [Olaparib] (first compound max 10 µM, 7x7, partner max 10 µM) | 0.0073 | -0.0069 | -0.0399 | -0.0359 | -0.0205 | 0.0469 | 0.0506 | 0.031 | -0.0236 | -0.0168 | -0.0286 | 0.024 | 0.0419 | -0.0453 | -0.0365 | 0.0089 | 0.0013 | -0.0284 | -0.0264 | 0.0087
CC1(C)CCC(CN2CCN(c3ccc(C(=O)NS(=O)(=O)c4ccc(NCC5CCOCC5)c([N+](=O)[O-])c4)c(Oc4cnc5[nH]ccc5c4)c3)CC2)=C(c2ccc(Cl)cc2)C1 [Venetoclax] + C[C@@H](Nc1cc(F)cc(F)c1)c1cc(C(=O)N(C)C)cc2c(=O)cc(N3CCOCC3)oc12 [AZD8186] (first compound max 1 µM, 7x7, partner max 3 µM) | -0.0458 | 0.0034 | 0.095 | -0.0332 | 0.002 | 0.135 | 0.0138 | -0.0213 | 0.0046 | -0.0022 | -0.0555 | -0.0151 | -0.0551 | 0.0095 | -0.0492 | 0.0808 | -0.0033 | -0.0777 | -0.0481 | -0.0044
CC1(C)CCC(CN2CCN(c3ccc(C(=O)NS(=O)(=O)c4ccc(NCC5CCOCC5)c([N+](=O)[O-])c4)c(Oc4cnc5[nH]ccc5c4)c3)CC2)=C(c2ccc(Cl)cc2)C1 [Venetoclax] + CN(C)CCCOc1ccc(-c2ccc3ncc4c(c3c2)n(C2CCOCC2)c(=O)n4C)cn1 [AZD0156] (first compound max 1 µM, 7x7, partner max 1 µM) | -0.0012 | 0.0025 | 0.0051 | -0.0166 | -0.0305 | 0.0317 | -0.0153 | 0.0014 | 0.0261 | 0.04 | -0.0156 | -0.0012 | -0.0273 | -0.0087 | -0.004 | -0.0001 | -0.0267 | -0.0307 | 0.0031 | -0.0651
NC1(C(=O)N[C@@H](CCO)c2ccc(Cl)cc2)CCN(c2ncnc3[nH]ccc23)CC1 [Capivasertib] + CC(=O)c1c(C)c2cnc(Nc3ccc(N4CCNCC4)cn3)nc2n(C2CCCC2)c1=O [Palbociclib] (first compound max 10 µM, 7x7, partner max 10 µM) | -0.114 | -0.0758 | -0.0565 | 0.0453 | -0.0395 | 0.0092 | 0.0815 | -0.0134 | -0.0168 | 0.0171 | -0.0242 | 0.0484 | -0.0138 | 0.0439 | 0.0662 | -0.0472 | 0.0134 | -0.0265 | -0.0047 | 0.0361
